Values of other authors, collected in patent US20080299102A1, “Novel BACE proteins, nucleic acid molecules therefor, novel crystal structure of novel BACE proteins, and methods for making and using” (priority 2001, published 2008).
Where a SMILES comes first, the peptide text is derived from it. [ ]: non-standard residue; d: D form. The star is where a group is joined. Sta = CC(C)C[C@H](N)[C@@H](O)CC(=O)O; Isovaleryl = CC(C)CC(=O)*

Target: BACE (Homo sapiens, UniProt P56817)
Conditions: general statement in the description, no test data given

Chain of BACE (P56817 46-501): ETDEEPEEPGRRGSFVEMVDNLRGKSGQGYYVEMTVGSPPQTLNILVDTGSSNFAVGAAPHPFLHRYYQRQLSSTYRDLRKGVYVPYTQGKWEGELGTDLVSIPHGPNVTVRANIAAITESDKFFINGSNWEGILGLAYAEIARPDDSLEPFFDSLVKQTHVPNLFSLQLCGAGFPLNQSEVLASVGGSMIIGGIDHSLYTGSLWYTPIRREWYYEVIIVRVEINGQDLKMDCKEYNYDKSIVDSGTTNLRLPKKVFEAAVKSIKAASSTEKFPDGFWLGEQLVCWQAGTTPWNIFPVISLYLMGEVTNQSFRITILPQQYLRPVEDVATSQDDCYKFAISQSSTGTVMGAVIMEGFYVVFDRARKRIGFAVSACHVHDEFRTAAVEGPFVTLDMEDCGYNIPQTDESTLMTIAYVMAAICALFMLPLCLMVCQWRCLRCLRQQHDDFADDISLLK

SMILES: CC(C)CC(=O)N[C@H](C(=O)N[C@H](C(=O)N[C@@H](CC(C)C)[C@@H](O)CC(=O)N[C@@H](C)C(=O)N[C@@H](CC(C)C)[C@@H](O)CC(=O)O)C(C)C)C(C)C [pepstatin] (Isovaleryl-VV[Sta]A[Sta]-OH)
- inhibition of BACE: not inhibited
